Drawing on PubChem BioAssay (NCI), this text covers GI50 and TGI for 30 compounds.

“And” between values parts separate entries of the source, which are not always exact repeats. Identical values can stand only once.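 96-well plates; 48 h exposure; 5 concentrations. Endpoints by linear interpolation between flanking doses. Not reached: highest tested concentration assigned. Abbreviation: GI50, concentration required for 50% inhibition of growth. TGI: concentration producing complete growth inhibition.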

This experiment concerns MDA-MB-468 breast. Briefly: DTP human tumour cell line panel, 48 h.
As for `CC(C)=CCc1cc(O)cc2c1OC(C=C(C)C)C1=C2C(=O)C2=C(NCCS2(=O)=O)C1=O` (stereo not drawn), the GI50 – broadly, the concentration at which growth is held to half of that of the control – is 2.54 µM and the TGI (commonly the concentration at which net growth stops) turned out to be 7.89 µM.
For the compound `N#C/C=C(\c1ccc([N+](=O)[O-])cc1)n1nnc2cc(Cl)c(Cl)cc21`, the GI50 was 1.37 µM and the TGI stood at 3.33 µM.
In the case of `COc1ccncc1C#Cc1cncc(C(=O)Nc2ccc(CN3CCN(C)CC3)c(C(F)(F)F)c2)c1`, the GI50 was 24.7 µM and the TGI is > 100 µM.
As for `O=C(c1c(F)ccc(NS(=O)(=O)N2CC[C@@H](F)C2)c1F)c1c[nH]c2ncc(-c3cnc(C4CC4)nc3)cc12`, the GI50 is 3.93 µM and 3.67 µM; the concentration for total growth inhibition (TGI) was > 10 µM and 27.9 µM.
In the case of `Cc1csc(Nc2nc(-c3cccc(Br)c3)nc(C(Cl)(Cl)Cl)n2)n1`, the GI50 was 0.354 µM and the TGI is 1.55 µM.
Take `COc1cc(C2c3cc4c(cc3C(O)C(CO)C2CO)OCO4)cc(OC)c1OC` (stereo not drawn): the GI50 was 0.27 µM.
Consider `Nc1nccc2c1ccn2-c1ccc(NC(=O)c2ccc(N3CCOCC3)c(C(F)(F)F)c2)cc1`, for which the GI50 was 2.16 µM and the TGI was found to be 16.5 µM.
As to `N=c1ccn2c(n1)OC1C(O)C(CO)OC12` (stereo not drawn), the GI50 was > 100 µM and the TGI was > 100 µM.
Take `COc1cccc2c1C(=O)c1c(O)c3c(c(O)c1C2=O)CC(O)(/C(C)=N/NC(=O)CCC(=O)N/N=C(\C)C1(O)Cc2c(O)c4c(c(O)c2C(OC2CC(N)C(O)C(C)O2)C1)C(=O)c1c(OC)cccc1C4=O)CC3OC1CC(N)C(O)C(C)O1` (stereo not drawn): the GI50 was 0.101 µM and the TGI is 0.34 µM.
For `CCOC(=O)C(=Cc1cccc(Cl)c1)C(=O)OCC`, in that order: 1.81 µM and 3.85 µM.
For `O=c1cc2oc3cc(O)c(O)cc3c(-c3ccccc3O)c-2cc1O`, in that order: 12.6 µM and 42.6 µM.
For `COc1cc(-c2nn(-c3cccc(NC(=O)Nc4ccc(Cl)c(Cl)c4)c3)cc2-c2ccncc2)ccc1Cl`, in that order: 0.567 µM and 2.27 µM.
Take `COc1cc(CNCCCN2C(=O)c3ccc4c5c(ccc(c35)C2=O)C(=O)N(CCCNCc2cc(OC)c(OC)c(OC)c2)C4=O)cc(OC)c1OC`: the GI50 was 0.153 µM and the TGI was 0.406 µM.
For `N#Cc1c(-c2ccc(F)cc2)c(-c2ccc(F)cc2)nn(CCO)c1=O`, the TGI is > 100 µM.
Take `C[C@H]1Oc2cc(cnc2N)-c2c(nn(C)c2C#N)CN(C)C(=O)c2ccc(F)cc21`: the GI50 was 30.8 µM and the TGI is > 100 µM.
For `C=CC(=O)N1CCC(C2CCNc3c(C(N)=O)c(-c4ccc(Oc5ccccc5)cc4)nn32)CC1` (stereo not drawn), in that order: 0.752 µM and 8.52 µM.
The matching figures for `Nc1c(C(=O)Nc2cccc(Br)c2)sc2nc3c(cc12)C(=O)CCC3`: 0.259 µM and > 100 µM.
The matching figures for `O=c1[nH]c(=O)n(C2CC(O)C(CO)O2)cc1CO` (stereo not drawn): > 100 µM and > 100 µM.
Take `Cc1ccc(/C=C/c2c(C(=O)/C=C/c3ccc(C(F)(F)F)cc3)c(C)nc3ccccc23)cc1`: the GI50 is 1.84 µM and the TGI turned out to be 3.53 µM.
Turning to `O=C1c2c(c3c4cc(Br)ccc4[nH]c3c3ccc4ccccc4c23)C(=O)N1CCN1CCCCC1`, the GI50 is 1.62 µM and the TGI was determined as 3.52 µM.
The matching figures for `CS(=O)(=O)CCCn1c(=O)c(Oc2ccc(F)cc2F)cc2cnc(NC3CCOCC3)nc21`: > 25 µM and > 25 µM.
Turning to `CC(=O)c1cc2c(o1)C(=O)c1ccccc1C2=O`, the GI50 was 0.912 µM and 1.26 µM; the TGI was 2.54 µM and 2.8 µM.
Regarding `COC12C=C/C(=C(/C(=O)OCc3ccncc3)C(=O)CCCCCCCCC3(OC)C=C/C(=C(/C(=O)OCc4ccncc4)C(=O)CCCCCCCC1)O3)O2`, the GI50 was 0.635 µM and the TGI is 2 µM.
In the case of `Cn1cnc([N+](=O)[O-])c1S(=O)(=O)Oc1ccccc1`, the GI50 is 1.95 µM and the TGI was found to be 4.68 µM.
As for `O=C(c1ccc(F)c(F)c1Nc1ccc(I)cc1F)N1CC(O)([C@@H]2CCCCN2)C1`, the GI50 was 3.75 µM and 1.79 µM; the TGI was 16.2 µM and > 8.97 µM.
In the case of `Cn1cc(C2=C(c3cn(C)c4cc(C(N)=O)ccc34)C(=O)NC2=O)c2ccccc21`, the GI50 was 1.18 µM and the TGI stood at 15.9 µM.
The matching figures for `COc1ccc2[nH]cc(-c3nc(-c4c[nH]c5ncccc45)cs3)c2c1`: 2.69 µM and > 100 µM.
Turning to `CC1(C)OCCn2c1nc1c(N3CCOCC3)nc(-c3cnc(N)nc3)nc12`, the GI50 is 0.339 µM and the TGI amounted to 2.6 µM.
In the case of `Cc1nc2cnc(N)c(C#Cc3cncc(C(=O)Nc4ccc(CN5CCN(C)CC5)c(C(F)(F)F)c4)c3)c2nc1C`, the GI50 is 2.25 µM and the TGI is 15.9 µM.
The matching figures for `CCCCCCNC(=O)c1nc(-c2ccccc2)oc1Cc1ccc(OP(=O)(O)O)cc1`: 14.3 µM and 28.2 µM.
